Reference: PubChem BioAssay (NCI)
“And” between values parts separate entries of the source, which are not always exact repeats. Equal values may be shown once.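 Where inhibition never reached the appropriate level, the endpoint shown equals the highest concentration tested. Otherwise, values were interpolated linearly from a five-concentration, 48-hour dose response in 96-well plates. GI50: concentration for 50% inhibition of growth. TGI denotes the concentration required for complete inhibition of growth.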

Key:
Assay in all cases: inhibition of tumour cell growth, NCI panel, 48 h
HL-60(TB) leukemia = test system: HL-60(TB) leukemia
HOP-62 NSCLC = test system: HOP-62 NSCLC
IGROV1 ovarian = test system: IGROV1 ovarian
NCI-H226 lung = test system: NCI-H226 lung
NCI-H522 lung = test system: NCI-H522 lung
NCI/ADR-RES ovarian = test system: NCI/ADR-RES ovarian
OVCAR-3 ovarian = test system: OVCAR-3 ovarian
RXF 393 renal = test system: RXF 393 renal
TK-10 renal = test system: TK-10 renal
UO-31 renal = test system: UO-31 renal

Work on Cc1cccc(NC(=O)c2cccc([N+](=O)[O-])c2O)c1C yielded a TGI (HL-60(TB) leukemia) of 22.1 µM, a TGI (HOP-62 NSCLC) of 52.4 µM and a TGI (IGROV1 ovarian) of over 100 µM. For the same molecule, the TGI (NCI-H226 lung) was over 87.7 µM, the TGI (NCI-H522 lung) was 58 µM and the TGI (NCI/ADR-RES ovarian) was over 100 µM. The TGI (OVCAR-3 ovarian) was over 100 µM, the TGI (RXF 393 renal) was 53.6 µM and the TGI (TK-10 renal) was over 100 µM. The TGI (UO-31 renal) was 74.7 µM.
C=C(c1ccccc1)[C@@]1(O)CC[C@@H]1N(CC#N)Cc1ccccc1 was tested, and the TGI (HL-60(TB) leukemia) was over 62.1 µM, the TGI (HOP-62 NSCLC) was over 100 µM and the TGI (IGROV1 ovarian) was 72.6 µM. It also gave a TGI (NCI-H226 lung) of over 100 µM, a TGI (NCI-H522 lung) of 47.8 µM and a TGI (NCI/ADR-RES ovarian) of 43.8 µM. It also gave a TGI (OVCAR-3 ovarian) of 17.1 µM, a TGI (RXF 393 renal) of 34.6 µM and a TGI (TK-10 renal) of 35.5 µM. It also gave a TGI (UO-31 renal) of 67.4 µM.
Molecule CC(=O)OCc1cc2ccccc2nc1C(Br)(Br)Br has a TGI (HL-60(TB) leukemia) of 40.9 µM, a TGI (HOP-62 NSCLC) of 56.3 µM and a TGI (IGROV1 ovarian) of 25.7 µM. For the same molecule, the TGI (NCI-H226 lung) was 60.8 µM, the TGI (NCI-H522 lung) was 34 µM and the TGI (NCI/ADR-RES ovarian) was 44 µM. For the same molecule, the TGI (OVCAR-3 ovarian) was 30.2 µM, the TGI (RXF 393 renal) was 33.4 µM and the TGI (TK-10 renal) was 36.7 µM. For the same molecule, the TGI (UO-31 renal) was 29.5 µM.
With O=c1c(O)c(-c2cc(O)c(O)c(O)c2)oc2cc(O)cc(O)c12 the TGI (HL-60(TB) leukemia) was over 100 µM, the TGI (HOP-62 NSCLC) was 41.4 µM and the TGI (IGROV1 ovarian) was over 100 µM. The TGI (NCI-H226 lung) was 57.1 µM, the TGI (NCI-H522 lung) was over 100 µM and the TGI (NCI/ADR-RES ovarian) was 53.2 µM. For the same molecule, the TGI (OVCAR-3 ovarian) was 89.7 µM, the TGI (RXF 393 renal) was 43.4 µM and the TGI (TK-10 renal) was over 100 µM. For the same molecule, the TGI (UO-31 renal) was over 100 µM.
Molecule O=C(OC[C@H]1O[C@H](OC(=O)c2cc(O)c(O)c(OC(=O)c3cc(O)c(O)c(O)c3)c2)[C@H](OC(=O)c2cc(O)c(O)c(OC(=O)c3cc(O)c(O)c(O)c3)c2)[C@@H](OC(=O)c2cc(O)c(O)c(OC(=O)c3cc(O)c(O)c(O)c3)c2)[C@@H]1OC(=O)c1cc(O)c(O)c(OC(=O)c2cc(O)c(O)c(O)c2)c1)c1cc(O)c(O)c(OC(=O)c2cc(O)c(O)c(O)c2)c1 has a GI50 (HL-60(TB) leukemia) of 7.53 µM, a TGI (HL-60(TB) leukemia) of 23.5 µM and a GI50 (HOP-62 NSCLC) of 1.78 µM. The TGI (HOP-62 NSCLC) was over 25 µM, the GI50 (IGROV1 ovarian) was 3.69 µM and the TGI (IGROV1 ovarian) was over 25 µM. It also gave a GI50 (NCI-H226 lung) of 3.23 µM, a TGI (NCI-H226 lung) of 18 µM and a GI50 (NCI-H522 lung) of 1.96 µM. It also gave a TGI (NCI-H522 lung) of 7.68 µM, a GI50 (NCI/ADR-RES ovarian) of 1.3 µM and a TGI (NCI/ADR-RES ovarian) of 18.9 µM. The GI50 (OVCAR-3 ovarian) was 4.68 µM, the TGI (OVCAR-3 ovarian) was 22.1 µM and the GI50 (RXF 393 renal) was 1.2 µM. For the same molecule, the TGI (RXF 393 renal) was 7.48 µM, the GI50 (TK-10 renal) was 7.66 µM and the TGI (TK-10 renal) was over 25 µM. The GI50 (UO-31 renal) was 2.61 µM and the TGI (UO-31 renal) was over 25 µM.
O=C1C(Cl)=C(NCc2ccco2)C(=O)c2ccccc21 gave a GI50 (HL-60(TB) leukemia) of 7.63 µM, a TGI (HL-60(TB) leukemia) of over 76.9 µM and a GI50 (HOP-62 NSCLC) of 17.1 µM. The TGI (HOP-62 NSCLC) was 43.6 µM, the GI50 (IGROV1 ovarian) was 10.9 µM and the TGI (IGROV1 ovarian) was 44 µM. For the same molecule, the GI50 (NCI-H226 lung) was 18.8 µM, the TGI (NCI-H226 lung) was over 60.7 µM and the GI50 (NCI-H522 lung) was 7.15 µM. The TGI (NCI-H522 lung) was over 55.2 µM, the GI50 (NCI/ADR-RES ovarian) was 31.2 µM and the TGI (NCI/ADR-RES ovarian) was over 100 µM. It also gave a GI50 (OVCAR-3 ovarian) of 4.93 µM, a TGI (OVCAR-3 ovarian) of 19.4 µM and a GI50 (RXF 393 renal) of 21.6 µM. For the same molecule, the TGI (RXF 393 renal) was 50.6 µM, the GI50 (TK-10 renal) was 22.1 µM and the TGI (TK-10 renal) was over 100 µM. The GI50 (UO-31 renal) was 38.5 µM and the TGI (UO-31 renal) was over 100 µM.
Work on CCOC(=O)c1c2c(n3ccccc13)C(=O)c1ncccc1C2=O yielded a GI50 (HL-60(TB) leukemia) of 0.0784 µM, a TGI (HL-60(TB) leukemia) of 1.09 µM and a GI50 (HOP-62 NSCLC) of 0.0777 µM. For the same molecule, the TGI (HOP-62 NSCLC) was 8.86 µM, the GI50 (IGROV1 ovarian) was 0.0987 µM and the TGI (IGROV1 ovarian) was 42.7 µM. It also gave a GI50 (NCI-H226 lung) of 0.0544 µM, a TGI (NCI-H226 lung) of 3.5 µM and a GI50 (NCI-H522 lung) of 0.419 µM. It also gave a TGI (NCI-H522 lung) of 3.72 µM, a GI50 (NCI/ADR-RES ovarian) of 0.0348 µM and a TGI (NCI/ADR-RES ovarian) of 3.09 µM. For the same molecule, the GI50 (OVCAR-3 ovarian) was 0.03 µM, the TGI (OVCAR-3 ovarian) was 0.945 µM and the GI50 (RXF 393 renal) was 0.0792 µM. It also gave a TGI (RXF 393 renal) of 13.9 µM, a GI50 (TK-10 renal) of 0.354 µM and a TGI (TK-10 renal) of 20.2 µM. It also gave a GI50 (UO-31 renal) of 0.0338 µM and a TGI (UO-31 renal) of 3.79 µM.
NCCCNCCCCNC(=O)C(O)NC(=O)CCCCCCN=C(N)N (stereo not given) gave a GI50 (HL-60(TB) leukemia) of 2500 µM, a TGI (HL-60(TB) leukemia) of over 4090 µM and a GI50 (HOP-62 NSCLC) of 3470 µM. The TGI (HOP-62 NSCLC) was 750 µM and > 5000 µM, the GI50 (IGROV1 ovarian) was 2620 µM and the TGI (IGROV1 ovarian) was 750 µM and > 5000 µM. The GI50 (NCI-H226 lung) was 2430 µM, the TGI (NCI-H226 lung) was 750 µM and > 5000 µM and the GI50 (NCI-H522 lung) was 1350 µM. The TGI (NCI-H522 lung) was 636 µM and 2860 µM, the GI50 (NCI/ADR-RES ovarian) was 2190 µM and the TGI (NCI/ADR-RES ovarian) was over 5000 µM. For the same molecule, the GI50 (OVCAR-3 ovarian) was 1750 µM, the TGI (OVCAR-3 ovarian) was 750 µM and > 5000 µM and the GI50 (RXF 393 renal) was 3480 µM. For the same molecule, the TGI (RXF 393 renal) was 750 µM and > 5000 µM, the GI50 (TK-10 renal) was over 4030 µM and the TGI (TK-10 renal) was over 5000 µM. For the same molecule, the GI50 (UO-31 renal) was 2980 µM and the TGI (UO-31 renal) was 619 µM and > 5000 µM.
